# Reference: US20110135603A1, “INHIBITORS OF PHOSPHATIDYLINOSITOL 3-KINASE” (VERTEX PHARMACEUTICALS INCORPORATED, priority 2008, published 2011)
# Read-outs that look alike come from different tables or passages of the source.
# Experiments:
# [1] = Evaluation of Brain/Plasma Concentrations; type: in vivo; conditions: Sprague-Dawley rats; for concentration at 2 h: 10 mg/kg oral intragastric in 0.5% MC, two hours after administration; for Kp at 2 h: 10 mg/kg oral, two hours, average brain/plasma ratio based on data obtained for each animal
# Description: Selected compounds of the invention were evaluated for their ability to cross the blood-brain barrier. Accordingly, a compound of the invention was administered to Sprague-Dawley rats [10 mg/kg as a 1 mg/mL 0.5% MC solution] via oral intragastric delivery. Two hours after compound administration, the rats were anaesthetized by intramuscular administration of a 2 mL/kg Ketamine/Rompun/Acepromazine cocktail and placed onto necropsy table. The abdominal cavity was then opened with a V-cut and 300 microliters of blood was drawn directly from left ventricle for plasma concentration analysis. The blood sample was stored on ice in a 1.5 mL Eppendorf tube (containing K2EDTA) and subsequently centrifuged for 2 minutes at 2000 rpm. After centrifugation, 110 microliters of plasma was transferred to a fresh tube and stored at −70° C. until analysis. The rat was perfused with cold saline (containing 50 IU of heparin) at 20 mL/min from an infusion pump through the left ventricle of the heart. Immediately after starting the perfusion, a small cut in the right atria was made so that heparinized saline would flow through the body. The perfusion was continued until the liver appeared pale in color (about 60 mL of cold saline). The brain was removed and placed on ice, blotted dry, weighed, placed in a tube, frozen with liquid nitrogen, and stored at −70° C. until further analysis was performed.
# In order to determine compound concentration in the plasma, the blood sample was prepared by protein precipitation with addition of acetonitrile at a ratio of 1:4. After vortexing and centrifugation, the supernatant was analyzed by high performance liquid chromatography-tandem mass spectrometry in positive Atmospheric Pressure Chemical Ionization (APCI) ionization mode. The analysis was done using reverse-phase high performance liquid chromatography with a 5.0 μm Xterra C18 analytical column (2.1×50 mm). Mobile phase was consists of a mixture of 10 mM ammonium acetate and acetonitrile running in a 1.5 minutes linear gradient. Aliquots of the matrix were spiked with known concentrations of the compound of interest and an internal standard. Study samples were spiked with the internal standard alone. The calibration curve generally contains final concentrations in the control matrix of 1 to 5000 ng/mL. The calibration curve was analyzed and the instrument response (area counts for compound of interest/Area Counts for internal Standard) are used to generate a calibration curve. The instrument response for study samples were compared to the calibration curve and the concentration back-calculated from the curve.
# In order to determine compound concentration in the brain, the brain sample was thawed to RT, and a 0.5 weight equivalent of water was added to the sample. The sample was then completely homogenized. Two to four volumes of acetonitrile were added to the brain homogenate, the homogenate mixed and the sample centrifuged to remove protein. Similar to the method used to obtain blood concentrations, an aliquot of the sample homogenate supernatant was injected onto an LC/MS/MS running a gradient suitable for detecting the compound of interest. The instrument response was compared to the instrument response from calibration samples of brain homogenate spiked with known concentrations of compound in order to determine the brain concentration.
# [2] = target: PI3Kγ (Homo sapiens, UniProt P48736); assay: PI3K Inhibition Assay (33P-ATP, PI(4,5)P2 substrate), PI3Kγ isoform; type: biochemical; conditions: 2 nM final enzyme, 3 μM ATP, 30 μM PI(4,5)P2; competitive tight binding Ki fit
# PI3Kγ, sequence (P48736 whole entry, species assumed, canonical isoform): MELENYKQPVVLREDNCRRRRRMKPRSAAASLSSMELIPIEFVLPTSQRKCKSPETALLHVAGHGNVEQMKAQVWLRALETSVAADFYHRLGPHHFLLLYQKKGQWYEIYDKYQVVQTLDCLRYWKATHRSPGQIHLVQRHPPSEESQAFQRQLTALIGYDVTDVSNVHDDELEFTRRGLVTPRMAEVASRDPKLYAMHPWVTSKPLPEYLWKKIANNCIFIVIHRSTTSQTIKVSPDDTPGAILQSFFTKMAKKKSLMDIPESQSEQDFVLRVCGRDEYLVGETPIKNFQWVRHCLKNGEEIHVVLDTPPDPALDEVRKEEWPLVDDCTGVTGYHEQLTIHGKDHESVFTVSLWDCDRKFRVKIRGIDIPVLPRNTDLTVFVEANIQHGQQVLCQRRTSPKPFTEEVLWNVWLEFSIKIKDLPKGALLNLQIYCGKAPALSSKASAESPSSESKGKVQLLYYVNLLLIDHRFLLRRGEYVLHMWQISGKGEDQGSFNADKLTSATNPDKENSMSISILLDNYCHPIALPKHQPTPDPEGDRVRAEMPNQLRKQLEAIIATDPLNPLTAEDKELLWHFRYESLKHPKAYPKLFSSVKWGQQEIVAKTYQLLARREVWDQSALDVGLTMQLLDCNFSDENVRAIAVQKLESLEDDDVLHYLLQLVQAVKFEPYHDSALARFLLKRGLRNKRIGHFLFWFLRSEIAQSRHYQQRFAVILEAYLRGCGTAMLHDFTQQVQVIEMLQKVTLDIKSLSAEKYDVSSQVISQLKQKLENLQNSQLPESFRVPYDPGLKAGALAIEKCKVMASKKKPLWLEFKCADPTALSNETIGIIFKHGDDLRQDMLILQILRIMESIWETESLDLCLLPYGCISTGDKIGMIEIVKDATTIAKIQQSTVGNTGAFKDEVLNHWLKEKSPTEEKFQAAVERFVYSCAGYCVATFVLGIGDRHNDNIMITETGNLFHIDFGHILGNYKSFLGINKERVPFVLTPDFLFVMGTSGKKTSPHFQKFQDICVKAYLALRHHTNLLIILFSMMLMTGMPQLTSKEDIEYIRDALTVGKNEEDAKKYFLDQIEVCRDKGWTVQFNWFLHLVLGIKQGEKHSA
# Description: (§1) Using a Biomek FX from Beckman Coulter, 1.5 μL of each of ten 2.5-fold serial dilutions of a compound of the invention in 100% DMSO was added to an individual well (hereafter, “test well”) in a 96 well polystyrene plate [Corning, Costar Item No. 3697]. One test well also contained 1.5 μL of DMSO with no compound. […] Using a Titertek Multidrop, 50 μL of Reaction Mix [100 mM HEPES pH 7.5, 50 mM NaCl, 10 mM DTT, 0.2 mg/mL BSA, 60 μM phosphatidylinositol(4,5)bisphosphate diCl6 (PI(4,5)P2; Avanti Polar Lipids, Cat. No. 840046P) and PI3K isoform of interest (see Table 3 for isoform concentrations)] was added to each well. To initiate the reaction, 50 μL of ATP Mix [20 mM MgCl2, 6 μM ATP (100 μCi/μmole ^33P-ATP)] was added each well, followed by incubating the wells for 30 min. at 25° C. Final concentrations in each well were 50 mM HEPES 7.5, 10 mM MgCl2, 25 mM NaCl, 5 mM DTT, 0.1 mg/mL BSA, 30 μM PI(4,5)P2, 3 μM ATP, and the PI3K isoform of interest (see Table 3). Final compound concentrations in each well ranged from 10 μM to 1 nM.
# (§2) After incubation, the reactions in each well were quenched by addition of 50 μL of stop solution [30% TCA/Water, 10 mM ATP]. Each quenched reaction mixture was then transferred to a 96 well glass fiber filter plate [Corning, Costar Item No. 3511]. The plate was vacuum-filtered and washed three times with 150 μL of 5% TCA/water in a modified Bio-Tek Instruments ELX-405 Auto Plate Washer. 50 μL of scintillation fluid was added to each well and the plate read on a Perkin-Elmer TopCount™ NXT liquid scintillation counter to obtain ^33P-counts representing inhibition values.
# (§3) The value for the background well was subtracted from the value obtained for each test well and the data were fit to the competitive tight binding Ki equation described by Morrison and Stone, Comments Mol. Cell. Biophys. 2: 347-368, 1985.
# [3] = target: PI3Kα (Homo sapiens, UniProt P42336); assay: PI3K Inhibition Assay (33P-ATP, PI(4,5)P2 substrate), PI3Kα isoform; type: biochemical; conditions: 2 nM final enzyme, 3 μM ATP, 30 μM PI(4,5)P2; competitive tight binding Ki fit
# PI3Kα, sequence (P42336 whole entry, species assumed, canonical isoform): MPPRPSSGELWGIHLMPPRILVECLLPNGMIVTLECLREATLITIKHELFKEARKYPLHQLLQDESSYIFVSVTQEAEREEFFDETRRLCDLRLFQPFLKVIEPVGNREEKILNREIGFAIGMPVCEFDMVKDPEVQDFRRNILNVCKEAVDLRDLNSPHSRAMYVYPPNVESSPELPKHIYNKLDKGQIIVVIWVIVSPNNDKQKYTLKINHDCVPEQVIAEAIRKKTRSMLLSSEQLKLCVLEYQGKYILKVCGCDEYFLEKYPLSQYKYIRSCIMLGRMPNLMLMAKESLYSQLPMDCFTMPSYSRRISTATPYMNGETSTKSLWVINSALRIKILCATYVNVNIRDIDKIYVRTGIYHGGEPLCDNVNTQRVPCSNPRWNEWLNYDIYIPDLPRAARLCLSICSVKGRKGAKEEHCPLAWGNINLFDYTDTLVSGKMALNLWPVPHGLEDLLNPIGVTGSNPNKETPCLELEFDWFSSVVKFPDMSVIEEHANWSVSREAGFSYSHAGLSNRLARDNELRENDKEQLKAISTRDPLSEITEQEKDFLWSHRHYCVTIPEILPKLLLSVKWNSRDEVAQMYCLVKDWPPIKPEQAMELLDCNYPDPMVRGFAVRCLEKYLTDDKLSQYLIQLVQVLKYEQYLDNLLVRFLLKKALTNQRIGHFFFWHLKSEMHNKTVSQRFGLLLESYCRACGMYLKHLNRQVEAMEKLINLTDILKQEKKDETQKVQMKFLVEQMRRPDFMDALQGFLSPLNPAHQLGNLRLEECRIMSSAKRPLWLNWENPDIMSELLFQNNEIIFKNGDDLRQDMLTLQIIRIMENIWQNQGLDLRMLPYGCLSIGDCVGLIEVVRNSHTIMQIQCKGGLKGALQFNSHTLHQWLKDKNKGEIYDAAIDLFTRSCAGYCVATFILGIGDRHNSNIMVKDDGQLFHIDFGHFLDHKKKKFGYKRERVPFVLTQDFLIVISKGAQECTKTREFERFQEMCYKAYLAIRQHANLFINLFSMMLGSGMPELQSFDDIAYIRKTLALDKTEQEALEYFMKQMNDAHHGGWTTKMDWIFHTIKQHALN
# PI3Kα, sequence (P27986 whole entry partner, species assumed, canonical isoform): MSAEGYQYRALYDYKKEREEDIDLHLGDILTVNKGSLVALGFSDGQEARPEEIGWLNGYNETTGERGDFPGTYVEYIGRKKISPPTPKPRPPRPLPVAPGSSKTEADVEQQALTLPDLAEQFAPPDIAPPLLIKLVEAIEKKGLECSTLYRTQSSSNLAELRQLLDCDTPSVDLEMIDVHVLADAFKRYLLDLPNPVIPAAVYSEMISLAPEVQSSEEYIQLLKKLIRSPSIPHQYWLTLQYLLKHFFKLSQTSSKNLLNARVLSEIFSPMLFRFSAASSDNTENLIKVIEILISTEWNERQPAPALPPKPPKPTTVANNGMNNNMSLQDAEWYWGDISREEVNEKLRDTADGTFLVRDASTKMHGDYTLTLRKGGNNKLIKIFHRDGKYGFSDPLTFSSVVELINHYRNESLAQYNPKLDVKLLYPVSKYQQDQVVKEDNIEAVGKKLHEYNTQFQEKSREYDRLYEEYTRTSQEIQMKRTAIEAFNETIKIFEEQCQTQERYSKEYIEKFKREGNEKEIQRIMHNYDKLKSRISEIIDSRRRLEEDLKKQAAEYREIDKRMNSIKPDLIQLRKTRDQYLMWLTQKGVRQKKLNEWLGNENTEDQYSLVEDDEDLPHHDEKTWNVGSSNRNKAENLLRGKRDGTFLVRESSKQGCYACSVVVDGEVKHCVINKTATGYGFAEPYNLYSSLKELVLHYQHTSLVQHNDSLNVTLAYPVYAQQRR
# Description: as §1, §2, §3
# [4] = system: experimental autoimmune encephalomyelitis (EAE); assay: Experimental autoimmune encephalomyelitis (EAE) mouse model of multiple sclerosis; type: in vivo; conditions: prophylactic administration, contrasted with animals administered vehicle alone
# Text: See, for example, Keszthelyi et al., Neurology, 1996, 47:1053-1059.
# [5] = based on a density of rat plasma of 1.0 g/mL, read-out: Plasma Conc.
# [6] = rat, brain, average of two or three animals, read-out: Brain Conc.
"concentration at 2 h [1, 5]","concentration at 2 h [1, 6]",Kp at 2 h ([1]; rat),Ki [2],Ki [3],SMILES,Effect on disease in EAE [4]
210 ng/mL,55 ng/g,0.3,≤ 10 nM,100 to 4000 nM,CCOCCCNC(=O)Nc1nc2ccc(-c3cncc(C(F)(F)F)c3)nc2s1 [Compound 11],–
197 ng/mL,157 ng/g,0.8,10 to 100 nM,100 to 4000 nM,"CCCOCCNC(=O)Nc1nc2ccc(-c3cncc(C(F)(F)F)c3)nc2s1 [Compound 1, 1-(5-(5-(trifluoromethyl)pyridin-3-yl)thiazolo[5,4-b]pyridin-2-yl)-3-(2-propoxyethyl)urea]",–
–,–,–,10 to 100 nM,100 to 4000 nM,"CC(C)OCCCNC(=O)Nc1nc2ccc(-c3cncc(C(F)(F)F)c3)cc2s1 [Compound 3, 1-(6-(5-(trifluoromethyl)pyridin-3-yl)benzo[d]thiazol-2-yl)-3-(3-isopropoxypropyl)urea]",–
985 ng/mL,662 ng/g,0.7,≤ 10 nM,10 to 100 nM,COCCCNC(=O)Nc1nc2ccc(-c3cncc(C(F)(F)F)c3)nc2s1 [Compound 10],disease suppression
–,–,–,≤ 10 nM,10 to 100 nM,CCNC(=O)Nc1nc2ccc(-c3cncc(C(F)(F)F)c3)nc2s1 [Compound 13],–
–,–,–,10 to 100 nM,100 to 4000 nM,CCCOCCCNC(=O)Nc1nc2ccc(-c3cncc(C(F)(F)F)c3)nc2s1 [Compound 2],–
